Measured values published in patent publication US20150025077A1 (COYOTE PHARMACEUTICALS, INC., priority 2012, published 2015).
Where two headings read alike, the source gives them in different places. One block for each compound: values may come before it.

Experiments:
[1] = tested on: Sprague-Dawley rats; test: Kainic acid induced neurodegeneration and seizure behaviors in rats (Examples 20, 21); assay type: in vivo, rat; details: oral
From the text: Seizure behaviors were observed and scored (Ref. R. J. Racine, Modification of seizure activity by electrical stimulation: II. Motor seizure, Electroencephalogr. Clin. […] Modifications were made for the methods). Brain tissues of rats were sectioned on histology slides, and neurons in hippocampus tissues were stained by Nissl. Neurons in dentate gyrus tissues damaged by Kainic acid were quantified. The Memantine composition used in comparison refers to a commercially available NMDA receptor […]. […] Seizure behaviors were observed and scored (Ref. R. J. Racine, Modification of seizure activity by electrical stimulation: II. Motor seizure, Electroencephalogr. Clin. […] Modifications were made for the methods). Brain tissues of rats were sectioned on histology slides, and neurons in hippocampus tissues were stained by Nissl. Neurons damaged by Kainic acid and behavior scores were quantified.

[2] = Kp (ratio of AUCbrain to AUCplasma) of GGA in rat; assay type: in vivo; details: brain, 4 h, 6 h, 8 h, and 10 h time points
[3] = Katsuno et al., Proc. Natl. Acad. Sci. USA 2003; cited from earlier work
[4] = In-vivo PK of GGA oral formulations in rat; details: plasma; for bioavailability: read-out: oral bioavailability (% F); for half-life: read-out: t½ (converted)
Description: PK Parameters were calculated from noncompartmental analysis (NCA) model using WinNonlin software and the linear/log trapezoidal method.
Parameters that requires 1z: Terminal Half-Life (t1/2)=ln(2)/lz. Calculated using Lambda_z method to find best fit. If necessary, the concentration-time points were manually selected for use in the calculation. Bolded-italicized concentrations indicate points used for calculation.

[5] = tested on: SOD1 mice; test: CatWalk gait analysis in SOD1 mice; assay type: in vivo, mouse; design: Hind stride length, Mean/average: unit not given beside the values
From the text: Prior to onset, there was little to no difference between the transgenic and wildtype groups. Transgenic animals tended to rely more on front paws for movement as weakness and paralysis in the hind paws progressed. This began to show around timepoint P100, coinciding with the expected onset of disease. This impairment was seen through changes in front and hind paw step cycle, print area, mean intensity, and base of support.

[6] = tested on: Rat primary motor neurons; test: Axon extension of rat primary motor neurons; assay type: cell-based; details: 72 hrs; read-out: EC50 (cells extending axons)
Description: Rat primary motor neurons were isolated from embryonic spinal cords in accordance with the method of Henderson et al.; J Cohen and G P Wilkin (ed.), Neural Cell Culture, (1995) p69-81 which is herein incorporated by reference in its entirety. Briefly, spinal cords were dissected from day 15 embryo (E15) and incubated in a trypsin solution, and followed by DNase treatment to release spinal cord cells from tissue fragments. The cell suspension was centrifuged to remove tissue fragments. Then motor neurons were enriched by density gradient centrifugation.
Motor neurons were cultured in serum-free neurobasal medium containing insulin, forskolin, 3-isobutyl-1-methylxanthine, neurotrophic factors, Bovine serum albumin, selenium, transferrin, putrescine, progesterone and B27 supplement in tissue culture plate coated with poly-ornithine and laminin.
Rat primary motor neurons were prepared and cultured as described in Example 13. […] The cells extending axons were counted in five different fields for each treatment after 72 hrs. Percentage of positive cells relative to total cells in the same magnification field was calculated and the results were expressed as means+/−standard deviations, n=5.

[7] = tested on: Rap1; test: Prenylation of Rap1 in Neuro2A cells, western blotting; assay type: cell-based, mouse; details: 100 nM; with GGTI-298; percentage of control (GGTI only)
Description: Mouse neuroblastoma Neuro2A cells were cultured in DMEM supplemented with 10% FBS for 24 hrs. The cells were treated with 102GGA derivative compounds for 24 hrs first before GGTase inhibitor GGTI-298 was added to the culture medium for additional 24 hr incubation. […] Both un-prenylated and total Rap1 protein bands were quantified using Image J and normalized to their respective loading control GAPDH. The results for control and each compound treatment were calculated as the ratio of normalized un-prenylated Rap1 to total Rap1, and averaged from two biological repeats of one experiment. The final results were presented as a percentage of the control treatments (GGTI only) from the same batch experiment. The data shown in the chart were averaged from two repeats of one experiment and presented as the ratio of normalized un-prenylated Rap1 to total Rapt Compound ID numbers in table refer to structures in Table 1 and Table 2.

[8] = tested on: Neuro2A cells; test: Neuro2A cells that extended neurites, with GGTI-298 (Example 18); assay type: cell-based; details: 0.1-1 μM; vehicle 0.0-0.20
From the text: After differentiation was induced, cells that extended neurites were counted.

[9] = tested on: Murine neuro2A neuroblastoma cells; test: Neurite outgrowth of neuro2A cells with GGTI-298 (Example 30); assay type: cell-based, mouse; details: for Protection % / Median Counts (cells with neurite outgrowth) / ratio of counts relative to no inhibition: CNS-102/CNS-103 experiment; for Median Counts (cells with neurite outgrowth): no inhibition 60.3, PBS 18.5
Description: Differentiation was induced and cells incubated with geranylgeranyl transferase I inhibitor, GGTI-298. After 24 h digital images were taken and neurite outgrowth was quantified. The comparisons of the neuroprotective effect of these three compounds are shown below.
The estimated mean log10 counts, from five replicate wells for each treatment group were calculated by PROC GLM in SAS assuming a pooled estimate of variation.
The estimated mean log 10 counts from five replicate wells for each treatment group were calculated by PROC GLM in SAS assuming a pooled estimate of variation.
Differences in mean log(counts) between treatments for each concentration were calculated using PROC GLM in SAS. The p-value given is for the comparison of the estimated difference to zero, the expected difference value for no treatment effect. The anti-log of the differences represent the estimated ratio of counts (relative effect on inhibition) and are tabulated below along with the lower and upper 95% confidence intervals.

[10] = tested on: HSP70; test: HSP70 expression in neuro2A cells, western blot; assay type: cell-based, mouse; details: for HSP70 western signal (absence of compounds = 1.00): 48 hours, GGTI-298
Description: Differentiation was induced and cells incubated with geranylgeranyl transferase I inhibitor, GGTI-298. Cells were harvested and lysates were prepared and analyzed by western blot for HSP70 and HSP90. Western signals in the absence of the compounds were normalized as 1.00.

[11] = tested on: Mouse Neuro2A neuroblastoma cells; test: Neuro2A cells with neurites after GGTI-298 (Example 16); assay type: cell-based; details: 10 μM
Description: Mouse Neuro2A neuroblastoma cells were cultured in DMEM supplemented with 10% FBS for 24 hrs. […] Then differentiation was induced by retinoic acid in DMEM supplemented with 2% FBS. The cell culture was incubated with a Geranylgeranyl Transferase inhibitor, GGTI-298. After 24 hrs incubation, cells with neurites were counted.

[12] = tested on: Mouse neuroblastoma Neuro2A cells; test: Rescue of amyloid-beta oligomer induced cytotoxicity in Neuro 2a cells (CellTiter-Glo); assay type: cell-based; details: mouse/rat NG108-15, N2a, A-beta (O) together with compound 48 hr, normalized to A-beta (O) treated only, read-out: % viability vs. untreated
Description: Preparation of amyloid-beta oligomer (A-beta (O)): Synthetic wild type A-beta (1-42) was purchased from American Peptide, and first dissolved with hexafluoroisopropanol (HFIP), then dried in the blowing tissue culture hood overnight to form a film in the eppendorf tube. The A-beta peptide film was first resuspended with DMSO to a concentration of 5 mM, further diluted with DMEM containing N2 supplement (Invitrogen) to achieve a concentration of 100 μM, and then sonicated in room temperature water bath for 10 minutes. The 100 μM peptide solution was then incubated at 4° C. for 24 hr and thoroughly vortexed before applied to cells.
Mouse neuroblastoma Neuro2A cells were plated in 96-well plates and cultured in DMEM supplemented with 10% FBS for 24 hr. […] At the end of incubation, cells were harvested and subjected to viability assay using CellTiter-Glo Luminescent Cell Viability Assay Kit (Promega). […] Compound ID numbers in table refer to structures in Table 1 and Table 2.

[13] = GGA in 3% Hydroxypropyl Cellulose (Mn=10,262) aqueous suspension
[14] = GGA in 3% Hydroxypropyl Cellulose (Mn=100,000) aqueous suspension
[15] = GGA in 5% Gum Arabic aqueous suspension
[16] = GGA in 5% Gum Arabic+3% Hydroxypropyl Cellulose (Mn=10,262) aqueous suspension
[17] = GGA in 5% Gum Arabic+3% Hydroxypropyl Cellulose (Mn=100,000) aqueous suspension

Structure (SMILES): CC12CC3CC(C)(C1)CC(N)(C3)C2 [Memantine, reference compound]
- Hippocampus dentate gyrus neurons damaged ([1]; Kainic acid, vehicle 20.9): 3.53 Arbitrary units
- Seizure behaviors scores ([1]; Kainic acid, vehicle 34): 36.2

Structure (SMILES): CC(=O)CC/C=C(\C)CC/C=C(\C)CC/C=C(\C)CCC=C(C)C [GGA, geranylgeranyl acetone]
- Kp [2]: 0.08 to 0.11
- concentration of GGA required to exert a cytoprotective effect [3]: more than 600 mg per kg per day
- Tmax [4, 13]: 9.33 h
- bioavailability [4, 13]: 35%
- half-life [4, 13]: 18.7 h
- Tmax [4, 14]: 8.66 h
- bioavailability [4, 14]: 41.8%
- half-life [4, 14]: 3.13 h
- Tmax [4, 15]: 7.33 h
- bioavailability [4, 15]: 37.3%
- half-life [4, 15]: 3.43 h
- Tmax [4, 16]: 13.3 h
- bioavailability [4, 16]: 36.5%
- half-life [4, 16]: 6.73 h
- Tmax [4, 17]: 5.33 h
- bioavailability [4, 17]: 58%
- half-life [4, 17]: 10.2 h

Structure (SMILES): Nc1nc2ccc(OC(F)(F)F)cc2s1 [Riluzole, reference compound]
- Run Duration, Mean/average ([5]; P-42, SOD1/Vehicle 1.484746201): 1.65
- Hind stride length, Mean/average ([5]; P-42, SOD1/Vehicle 6.359471205): 6.337
- Swing speed, Mean/average ([5]; P-42, SOD1/Vehicle 45.8515272): 43.07
- Run Duration, Mean/average ([5]; P-124 (+/−) 3, SOD1/Vehicle 3.461605345): 3.113
- Hind stride length, Mean/average ([5]; P-124 (+/−) 3, SOD1/Vehicle 3.607909383): 4.244
- Swing speed, Mean/average ([5]; P-124 (+/−) 3, SOD1/Vehicle 23.93413455): 29.71

- EC50 [6]: 9.49 nM
Structure (SMILES): CC(=O)CC/C=C(/C)CC/C=C(\C)CC/C=C(\C)CCC=C(C)C [CNS-103]
- Mean of Hippocampus CA3 Neurons Damaged ([1]; 12 mg/Kg rat): 8.16 Arbitrary units
- Mean of Hippocampus CA3 Neurons Damaged ([1]; 25 mg/Kg rat): 10.64 Arbitrary units
- unprenylated/total RAP1 (%) [7]: 96%
- Mean of cell numbers (cells that extended neurites) [8]: 0.20-0.45 Arbitrary units
- Protection % ([9]; 10 nM): 19.6%
- Median Counts (cells with neurite outgrowth) ([9]; 10 nM): 26.7
- ratio of counts relative to no inhibition ([9]; 10 nM): 0.443
- Protection % ([9]; 100 nM): 25.8%
- Median Counts (cells with neurite outgrowth) ([9]; 100 nM): 29.3
- ratio of counts relative to no inhibition ([9]; 100 nM): 0.486
- Protection % ([9]; 1000 nM): 24.4%
- Median Counts (cells with neurite outgrowth) ([9]; 1000 nM): 28.7
- ratio of counts relative to no inhibition ([9]; 1000 nM): 0.476
- Protection % ([9]; 10000 nM): −5.3%
- Median Counts (cells with neurite outgrowth) ([9]; 10000 nM): 16.3
- ratio of counts relative to no inhibition ([9]; 10000 nM): 0.270
- maximum protection ([9]; CNS-102/CNS-103 experiment (FIG. 4B)): ~26%
- HSP70 western signal (absence of compounds = 1.00) ([10]; 100 nM): 1.00
- HSP70 western signal (absence of compounds = 1.00) ([10]; 1 μM): 1.07
- HSP70 western signal (absence of compounds = 1.00) ([10]; 10 μM): 0.99
- induction of HSP70 expression ([10]; various concentrations): failed to induce expression of HSP70
- Mean of cell numbers (cells with neurites) [11]: 0.195 Arbitrary units

Structure (SMILES): CC(C)=CCC/C(C)=C/CC/C(C)=C/CCC(=O)C(C)C [Compound 101]
- viability at 1 µM [12]: 126%
